# Data reported in US9522908B2, “Ezrin inhibitors and methods of making and using” (Georgetown University, priority 2010, dated 2016).
# Columns and labels:
# [1] = test system: K7M2 cells; assay: Invasion of HUVEC monolayer by K7M2 cells (ECIS, xCELLigence); type: cell-based; details: 1 μM and 10 μM, vs control 1% DMSO
# Description: FIG. 3 illustrates NSC305787 and NSC668394 inhibit ezrin mediated invasion of OS cells. (A) Endogenous ezrin protein levels in K12 and K7M2 cells are shown. Equal loading is determined by blotting with an actin antibody. […] Error bars represent standard deviation from duplicate data points. The experiments were performed in duplicates. Cell index is a measurement parameter with no units. In this assay a decrease in cell index represents invasion of HUVEC layer by OS cells. It is measured according to the following formula: Cell index=((Rt−R0)/F where, Rt is resistance at time point t, R0 is background resistance (measured with media alone, no cells), and F is frequency at which measurement is taken (10 kHz).
# The anti-invasive potential of NSC305787 and NSC668394 were evaluated by using electric cell impedance sensing (ECIS) on a Roche xCELLigence system (Roche, Indianapolis, Ind.). Briefly, HUVEC cells (25,000/well) were seeded in a 96-well plate in EGM-2 media (Lonza, Basel, CH). Following formation of a confluent HUVEC monolayer (app 32 hrs), EGM-2 media was aspirated and a layer of OS cells (10,000 cells/well) was added in DMEM media containing the compounds. This time point was accepted as 0 hr of treatment and invasion was monitored during the following 6 hrs by measuring changes in resistance at the cell-electrode interphase.
# [2] = biological target: T1, ezrin / poly-A-binding protein 1 (PABP1) interaction (Mus musculus, UniProt P26040); assay: Ezrin-PABP1 interaction by immunoprecipitation and western blot; type: cell-based; details: cells treated 60 min prior to immunoprecipitation
# T1 construct: endogenous in cells; host or cells: K7M2 osteosarcoma cells
# T1 sequence (P26040 whole entry): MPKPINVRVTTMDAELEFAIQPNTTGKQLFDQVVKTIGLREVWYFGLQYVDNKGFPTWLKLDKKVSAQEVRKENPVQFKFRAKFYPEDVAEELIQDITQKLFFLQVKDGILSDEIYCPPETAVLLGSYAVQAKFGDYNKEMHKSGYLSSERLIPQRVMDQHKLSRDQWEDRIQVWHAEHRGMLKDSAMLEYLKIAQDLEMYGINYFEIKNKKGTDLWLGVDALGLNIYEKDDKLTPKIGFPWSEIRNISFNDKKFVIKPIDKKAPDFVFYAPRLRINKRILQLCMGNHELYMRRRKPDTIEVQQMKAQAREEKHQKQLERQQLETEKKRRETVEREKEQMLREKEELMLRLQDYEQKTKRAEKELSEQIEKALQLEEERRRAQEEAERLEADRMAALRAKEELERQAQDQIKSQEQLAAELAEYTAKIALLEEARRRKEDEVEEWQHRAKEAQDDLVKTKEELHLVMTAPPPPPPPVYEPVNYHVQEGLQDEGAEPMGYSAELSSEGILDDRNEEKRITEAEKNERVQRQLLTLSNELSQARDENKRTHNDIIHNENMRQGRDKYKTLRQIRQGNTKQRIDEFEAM
# Description: (A) Total cell lysates from K7M2 osteosarcoma cells were immunoprecipitated by using an anti-ezrin antibody. As a control, non-specific total IgG was used. Immunoprecipitates were run on SDS-PAGE and Western Blot was performed using anti-ezrin (lower panel) and anti-PABP1 (upper panel) antibodies. PABP1 protein was detected in immunoprecipitates of ezrin, suggetsing that these two proteins interact with each other in a protein complex. (B) Ezrin-PABP1 interaction was also evaluated in an ELISA experiment where recombinant ezrin protein was immmobilized on surface and total cell lysates from osteosarcoma cells were applied on top. Amount of PABP1 binding to ezrin on the surface was detected by a anti-PABP1 primary antibody followed by enzyme linked secondary antibody. (C) Immunoprecipitation and western experiment was prepared as described in panel A. Cells were treated with NSC305787 (compound 8) and NSC668394 (compound 16) for 60 min prior to immunoprecipitation. Both NSC305787 and NSC668394 inhibited interaction of PABP1 with ezrin
# [3] = biological target: T2, ezrin in K7M2 OS cells (Mus musculus, UniProt P26040); assay: Endogenous ezrin T567 phosphorylation and actin binding in K7M2 cells (immunoprecipitation/immunoblot); type: cell-based; details: 10 μM
# T2 construct: endogenous in cells; host or cells: K7M2 osteosarcoma cells
# T2 sequence (P26040 whole entry): as above
# Description: (§1) K7M2 cells that were treated with embodied compounds and resolved protein lysates were immunoblotted for co-precipitated phosphorylated ezrin (TOP), or actin (BOTTOM). 4.0×10^6 K7M2 cells were plated in 15 cm dishes. After 24 h, the plates are at least 70% confluent. Media was removed and 10 μM of compound in SF DMEM was added. After the ezrin protein was incubated for 5 h with the indicated compound, the plates were lysed with PLB containing Calyculin A. 2 μL of Ezrin Ab and 10 μM of the compound (prepared in PLB) were added to the lysate and allowed to incubate overnight (14 h), followed by tumbling with Agarose IgG beads. The mixture was run on 10% acrylamide gel and transferred overnight.
# as §1, with “removed and either 7 μM or 10 μM” for “removed and 10 μM”
# For analysis of actin binding to FL and mutant ezrin, K12 cell lysate was incubated with recombinant ezrin protein, then subjected to immunoprecipitation with ezrin antibody (Sigma, St. Louis, Mo.) and immunoblotted with actin antibody (Santa Cruz, Santa Cruz, Calif.). For analysis of inhibition of small molecules on ezrin phosphorylation and actin binding, K7M2 cell lysates were treated with compounds at 10 μM concentration for 6 hours, followed by immunoprecipitation with the ezrin antibody and immunoblotted with phospho-ezrin (Cell Signaling, Danvers, Mass.), actin and ezrin antibodies.
# [4] = test system: MNNG, human OS cells; assay: In vivo experimental lung metastasis model, ezrin independent MNNG cells; set-up: species or system mice
# Description: FIG. 6 illustrates NSC305787 and NSC668394 inhibit in vivo OS metastatic growth in lungs. (A) K7M2 metastatic OS tumor cells (1×10^6) were injected via tail vein. Vehicle (1% DMSO), NSC305787 (240 μg/kg) and NSC668394 (226 μg/kg) were injected 5 days a week intraperitoneally. Kaplan-Meier survival curves show percent survival for NSC305787 and NSC668394 treatment over time. Median survival of vehicle, NSC305787 and NSC668394 treated K7M2 cells were 28.5, 50, and 49 days after tumor cell injection. […] (B) Fluorescence pictures of whole lungs are given. […] (C) GFP expressing ezrin independent MNNG, human OS cells were injected to mice and treated with vehicle (1% DMSO), NSC305787 (240 μg/kg) and NSC668394 (226 μg/kg). Survival of each group is not different probably because MNNG is an ezrin independent cell line. Median survival of vehicle, NSC305787 and NSC668394 treated MNNG cells were 50.5, 49, and 48.5 days after tumor cell injection. (D) Fluorescent images of the lung tissues of this group are given.
# GFP expressing K7M2 or MNNG tumor cells (1×10^6) were delivered by tail vein to nude mice. One day after injection, vehicle, NSC305787 (240 μg/kg/inj) and […] (226 μg/kg/inj) were injected 5 days a week intraperitoneally.
smiles,measurement,setting,value
OC(c1cc(C23CC4CC(CC(C4)C2)C3)nc2c(Cl)cc(Cl)cc12)C1CCCCN1 (stereo not shown) [NSC305787],invasion of K7M2 cells through HUVEC monolayer,[1],inhibited invasion
same,interaction of PABP1 with ezrin,[2],inhibited
same,cellular ezrin protein levels,[3],without altering cellular ezrin protein levels
same,T567 phosphorylation of endogenous ezrin,[3]; 6 hours,inhibited
same,actin binding of ezrin,[3]; 6 hours,inhibited
same,number of GFP expressing metastatic foci in lung tissues,[4]; MNNG cells,not a significant difference
same,median survival after tumor cell injection,"[4]; MNNG cells by tail vein, i.p. 5 days a week, vehicle 50.5 days",49 days
